pEC50: −log10 of the molar value.
Assays:
Hepatitis C virus [1] = experiment: Ratio of EC50 for HCV genotype 1a H77 infected in human HuH7 cells in presence of 10% BSA to EC50 for HCV genotype 1a H77 infected in human HuH7 cells; format: functional, Hepacivirus hominis, Huh-7
[2] = Metabolic stability in beagle dog liver microsomes assessed as hepatic extraction at 3 uM after 60 mins by LC/MS/MS analysis; format: ADME, Canis lupus familiaris; details: read-out: ERH
[3] = Mean residence time in cynomolgus monkey at 0.5 mg/kg, iv; format: ADME, organism-based, Macaca fascicularis; design: dose 0.5 mg/kg, route intravenous; details: in vivo
Hepatitis C virus [4] = experiment: Antiviral activity against HCV genotype 1a H77 infected in human HuH7 cells assessed as inhibition of viral RNA replication after 3 days by renilla luciferase reporter gene assay; format: functional, organism-based, Hepacivirus hominis; details: genotype 1a H77, Huh-7, 72 h
[5] = Metabolic stability in human liver microsomes assessed as hepatic extraction at 3 uM after 60 mins by LC/MS/MS analysis; format: ADME; details: read-out: ERH
[6] = Volume of distribution at steady state in Sprague-Dawley rat at 1 mg/kg, iv; format: ADME, organism-based; design: dose 1 mg/kg, route intravenous; details: in vivo, read-out: Vdss
[7] = Oral bioavailability in Sprague-Dawley rat at 2 mg/kg; format: ADME, organism-based; details: in vivo
[8] = Volume of distribution at steady state in cynomolgus monkey at 0.5 mg/kg, iv; format: ADME, organism-based, Macaca fascicularis; design: dose 0.5 mg/kg, route intravenous; details: in vivo, read-out: Vdss
[9] = Plasma concentration in fasted healthy human at 10 mg/kg, po at 24 hrs; format: ADME, organism-based; design: dose 10 mg/kg, route oral
Hepatitis C virus [10] = experiment: Antiviral activity against HCV genotype 1b Con1 infected in human HuH7 cells assessed as inhibition of viral RNA replication after 3 days by renilla luciferase reporter gene assay; format: functional, organism-based, Hepacivirus hominis; details: isolate Con1, Huh-7, 72 h
[11] = Ratio of EC50 for HCV genotype 1a H77 infected in human HuH7 cells in presence of human serum to plasma concentration in fasted healthy human at 3 mg/kg, po at 24 hrs; design: species or system Huh-7
[12] = Plasma concentration in fasted healthy human at 3 mg/kg, po at 24 hrs; format: ADME, organism-based; design: dose 3 mg/kg, route oral
[13] = AUC (infinity) in fasted healthy human at 10 mg/kg, po; format: ADME, organism-based; design: time infinity, dose 10 mg/kg, route oral; details: plasma
[14] = Half life in fasted healthy human at 60 mg/kg, po; format: ADME, organism-based; design: dose 60 mg/kg, route oral; details: in vivo
[15] = AUC (infinity) in fasted healthy human at 3 mg/kg, po; format: ADME, organism-based; design: time infinity, dose 3 mg/kg, route oral; details: plasma
Hepatitis C virus [16] = experiment: Ratio of EC50 for HCV genotype 1b Con1 infected in human HuH7 cells in presence of 10% BSA to EC50 for HCV genotype 1b Con1 infected in human HuH7 cells; format: functional, Hepacivirus hominis, isolate Con1, Huh-7
[17] = Plasma concentration in fasted healthy human at 100 mg/kg, po at 24 hrs; format: ADME, organism-based; design: dose 100 mg/kg, route oral
[18] = AUC (infinity) in fasted healthy human at 60 mg/kg, po; format: ADME, organism-based; design: time infinity, dose 60 mg/kg, route oral; details: plasma
[19] = Plasma concentration in fasted healthy human at 30 mg/kg, po at 24 hrs; format: ADME, organism-based; design: dose 30 mg/kg, route oral
[20] = Half life in fasted healthy human at 100 mg/kg, po; format: ADME, organism-based; design: dose 100 mg/kg, route oral; details: in vivo
[21] = Tmax in fasted healthy human at 30 mg/kg, po; format: ADME, organism-based; design: dose 30 mg/kg, route oral; details: in vivo
[22] = AUC (infinity) in fasted healthy human at 100 mg/kg, po; format: ADME, organism-based; design: time infinity, dose 100 mg/kg, route oral; details: plasma
[23] = Ratio of EC50 for HCV genotype 1a H77 infected in human HuH7 cells in presence of 10% BSA to plasma concentration in fasted healthy human at 3 mg/kg, po at 24 hrs; design: species or system Huh-7
[24] = Ratio of EC50 for HCV genotype 1a H77 infected in human HuH7 cells in presence of human serum to plasma concentration in fasted healthy human at 100 mg, po at 24 hrs
[25] = Clearance in beagle dog at 0.2 mg/kg, iv; format: ADME, organism-based, Canis lupus familiaris; design: dose 0.2 mg/kg, route intravenous; details: in vivo
[26] = AUClast in fasted healthy human at 60 mg/kg, po; format: ADME, organism-based; design: dose 60 mg/kg, route oral, time 0 - last; details: plasma
[27] = AUClast in fasted healthy human at 10 mg/kg, po; format: ADME, organism-based; design: time 0 - last, dose 10 mg/kg, route oral; details: plasma
[28] = AUClast in fasted healthy human at 3 mg/kg, po; format: ADME, organism-based; design: time 0 - last, dose 3 mg/kg, route oral; details: plasma
[29] = Tmax in fasted healthy human at 10 mg/kg, po; format: ADME, organism-based; design: dose 10 mg/kg, route oral; details: in vivo
[30] = Mean residence time in beagle dog at 0.2 mg/kg, iv; format: ADME, organism-based, Canis lupus familiaris; design: dose 0.2 mg/kg, route intravenous; details: in vivo
[31] = Oral bioavailability in cynomolgus monkey at 1 mg/kg; format: ADME, organism-based, Macaca fascicularis; details: in vivo
[32] = Cmax in fasted healthy human at 60 mg/kg, po; format: ADME, organism-based; design: dose 60 mg/kg, route oral; details: in vivo
[33] = Tmax in fasted healthy human at 3 mg/kg, po; format: ADME, organism-based; design: dose 3 mg/kg, route oral; details: in vivo

Q: For `COC(=O)N[C@H](C(=O)N1CC2(CC2)C[C@H]1c1nc(-c2ccc3c(c2)C(F)(F)c2cc(-c4ccc5[nH]c([C@@H]6[C@H]7CC[C@H](C7)N6C(=O)[C@@H](NC(=O)OC)C(C)C)nc5c4)ccc2-3)c[nH]1)C(C)C`, which “Ratio EC50” value (Hepatitis C virus [1]) is on record?
A: Its value is 6.7.

Q: What about the hepatic extraction ratio at 1 h, 3 µM [2] of the same compound?
A: The hepatic extraction ratio at 1 h, 3 µM was less than 0.095.

Q: What about the MRT [3] of the same compound?
A: The MRT was 12.9 h.

Q: And the pEC50 (Hepatitis C virus [4])?
A: The pEC50 was 10.51.

Q: And the hepatic extraction ratio at 1 h, 3 µM [5]?
A: The hepatic extraction ratio at 1 h, 3 µM was less than 0.127.

Q: What about the Vd [6] of the same compound?
A: Its Vd is 2.66 L/kg.

Q: What about the bioavailability [7] of the same compound?
A: The bioavailability was 32.5%.

Q: And the Vd [8]?
A: Its Vd is 2.15 L/kg.

Q: And the concentration at 24 h [9]?
A: Its concentration at 24 h is 7.94 nM.

Q: What about the pEC50 (Hepatitis C virus [10]) of the same compound?
A: The pEC50 was 11.40.

Q: And the Ratio [11]?
A: The Ratio was 12.

Q: What about the concentration at 24 h [12] of the same compound?
A: Its concentration at 24 h is 2.45 nM.

Q: What about the AUC(0-inf) [13] of the same compound?
A: The AUC(0-inf) was 0.695 µM·h.

Q: What about the half-life [14] of the same compound?
A: The half-life was 44.2 h.

Q: What about the AUC(0-inf) [15] of the same compound?
A: The AUC(0-inf) was 0.245 µM·h.

Q: And the “Ratio EC50” value (Hepatitis C virus [16])?
A: The value was 6.7.

Q: What about the concentration at 24 h [17] of the same compound?
A: Its concentration at 24 h is 98.8 nM.

Q: And the AUC(0-inf) [18]?
A: Its AUC(0-inf) is 5.3 µM·h.

Q: And the concentration at 24 h [19]?
A: Its concentration at 24 h is 31.4 nM.

Q: What about the half-life [20] of the same compound?
A: Its half-life is 39.5 h.

Q: And the Tmax [21]?
A: The Tmax was 5.75 h.

Q: And the AUC(0-inf) [22]?
A: Its AUC(0-inf) is 8.66 µM·h.

Q: And the Ratio [23]?
A: The Ratio was 12.

Q: What about the Ratio [24] of the same compound?
A: The Ratio was 470.

Q: What about the clearance [25] of the same compound?
A: The clearance was 2.17 mL/min/kg.

Q: And the AUC(0-t) [26]?
A: Its AUC(0-t) is 4.01 µM·h.

Q: And the AUC(0-t) [27]?
A: The AUC(0-t) was 0.558 µM·h.

Q: And the AUC(0-t) [28]?
A: The AUC(0-t) was 0.14 µM·h.

Q: And the Tmax [29]?
A: Its Tmax is 5 h.

Q: And the MRT [30]?
A: The MRT was 9.2 h.

Q: What about the bioavailability [31] of the same compound?
A: The bioavailability was 41.1%.

Q: And the Cmax [32]?
A: Its Cmax is 133 nM.

Q: What about the Tmax [33] of the same compound?
A: Its Tmax is 5.25 h.

From ChEMBL document CHEMBL3120075 (J Med Chem, 2014)
